Measurements reported in US9012456B2, “Compounds, pharmaceutical compositions and uses thereof” (Boehringer Ingelheim International GmbH, priority 2012, dated 2015).

Biological target: T1, human GPR119 (Homo sapiens, UniProt Q8TDV5)
T1 construct: expressed in transfected cells
T1 sequence (Q8TDV5 1-335): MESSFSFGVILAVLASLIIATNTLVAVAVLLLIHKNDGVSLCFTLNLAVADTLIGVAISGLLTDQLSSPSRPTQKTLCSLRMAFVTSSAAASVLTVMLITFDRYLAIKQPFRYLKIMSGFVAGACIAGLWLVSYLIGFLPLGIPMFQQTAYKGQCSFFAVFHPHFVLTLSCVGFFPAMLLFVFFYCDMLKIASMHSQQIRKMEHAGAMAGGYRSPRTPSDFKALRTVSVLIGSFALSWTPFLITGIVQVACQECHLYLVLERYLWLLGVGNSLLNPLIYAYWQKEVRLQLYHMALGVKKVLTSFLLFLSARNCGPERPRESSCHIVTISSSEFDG
Assay: AlphaScreen cAMP assay in Min-6/hGPR119 cells (activation of GPR119, stimulation of intracellular cAMP)
Format: cell-based
Details: MIN6 cells stably transfected with human GPR119; 45 min incubation at room temperature; cAMP by AlphaScreen
Description: The compounds of formula I according to the invention modulate the activity of the G-protein-coupled receptor GPR119. The effect of the compounds on the activation of GPR119 and on the stimulation of intracellular cAMP concentration is determined using the AlphaScreen cAMP Assay Kit (Cat. No. #6760625R) made by PerkinElmer.
MIN6 cells [Miyazaki J et al., Endocrinology. 1990 July; 127(1):126-32] are stably transfected with an expression vector for human GPR119 cDNA (Acc. No. NP_848566). Min-6/hGPR119 cells are cultured in DMEM, 10% FBS, 50 μM β-mercaptoethanol, 0.3 mg/mL Geniticin, 2 mM GlutaMAX at 37° C., 5% CO2. For the assay, the cells are seeded in Optiplates (white, 384-well, 160W-barcoded, TC, sterile with lid, Cat. No. #6007688 (Perkin Elmer); 10000 cells/well; 50 μL). The plates covered with lids are then incubated for 24 hours at 37° C., 5% CO2. After the medium is aspirated from the wells completely, 10 μl of the test compound are added, the compounds are diluted using stimulating buffer (140 mM NaCl, 3.6 mM KCl, 0.5 mM NaH2PO4, 0.5 mM MgSO4, 1.5 mM CaCl2, 10 mM Hepes, 5 mM NaHCO3; pH 7.4. 0.5 mM IBMX and 0.1% BSA, the final DMSO concentration is 1%). After 45 minutes incubation at room temperature (approx. 20° C.), the cAMP concentrations are determined using the AlphaScreen cAMP Assay Kit (Cat. No. #6760625R from PerkinElmer).

EC50 [nM] | SMILES
58 | CC(C)(C)OC(=O)N1CCC(c2cc3cc(-c4ccc(S(C)(=O)=O)cc4)ncc3o2)CC1 [Example 1, 4-[5-(4-Methanesulfonyl-phenyl)-furo[2,3-c]pyridin-2-yl]-piperidine-1-carboxylic acid tert-butyl ester]
62 | CC(C)(C)OC(=O)N1CCC(c2cc3cc(-c4ccc(S(C)(=O)=O)c(F)c4)ncc3o2)CC1 [Example 2, 4-[5-(3-Fluoro-4-methanesulfonyl-phenyl)-furo[2,3-c]pyridin-2-yl]-piperidine-1-carboxylic acid tert-butyl ester]
9 | CC(C)(C)OC(=O)N1CCC(c2cc3cc(-c4ccc(S(C)(=O)=O)cc4F)ncc3o2)CC1 [Example 3, 4-[5-(2-Fluoro-4-methanesulfonyl-phenyl)-furo[2,3-c]pyridin-2-yl]-piperidine-1-carboxylic acid tert-butyl ester]
121 | CC(C)(C)OC(=O)N1CCC(c2cc3cc(-c4ccc(NS(C)(=O)=O)cc4)ncc3o2)CC1 [Example 4, 4-[5-(4-Methanesulfonylamino-phenyl)-furo[2,3-c]pyridin-2-yl]-piperidine-1-carboxylic acid tert-butyl ester]
263 | CC(C)(C)OC(=O)N1CCC(c2cc3cc(-c4ccc(C#N)c(F)c4)ncc3o2)CC1 [Example 5, 4-[5-(4-Cyano-3-fluoro-phenyl)-furo[2,3-c]pyridin-2-yl]-piperidine-1-carboxylic acid tert-butyl ester]
45 | CCNC(=O)c1ccc(-c2cc3cc(C4CCN(C(=O)OC(C)(C)C)CC4)oc3cn2)cc1 [Example 6, 4-[5-(4-Ethylcarbamoyl-phenyl)-furo[2,3-c]pyridin-2-yl]-piperidine-1-carboxylic acid tert-butyl ester]
108 | CC(C)(C)OC(=O)N1CCC(c2cc3cc(-c4ccc(C(N)=O)cc4F)ncc3o2)CC1 [Example 7, 4-[5-(2-Fluoro-4-aminocarbonyl-phenyl)-furo[2,3-c]pyridin-2-yl]-piperidine-1-carboxylic acid tert-butyl ester]
281 | CC(C)(C)OC(=O)N1CCC(c2cc3cc(-c4ccc(C#N)cc4F)ncc3o2)CC1 [Example 8, 4-[5-(4-Cyano-2-fluoro-phenyl)-furo[2,3-c]pyridin-2-yl]-piperidine-1-carboxylic acid tert-butyl ester]
310 | CC(C)(C)OC(=O)N1CCC(c2cc3cc(-c4ccncc4)ncc3o2)CC1 [Example 11, 4-(5-Pyridin-4-yl-furo[2,3-c]pyridin-2-yl)-piperidine-1-carboxylic acid tert-butyl ester]
105 | CC(C)(C)OC(=O)N1CCC(c2cc3cc(-c4ccc(CS(C)(=O)=O)cc4)ncc3o2)CC1 [Example 12, 4-[5-(4-Methanesulfonylmethyl-phenyl)-furo[2,3-c]pyridin-2-yl]-piperidine-1-carboxylic acid tert-butyl ester]
233 | CC(C)(C)OC(=O)N1CCC(c2cc3cc(-c4ccncc4F)ncc3o2)CC1 [Example 15, 4-[5-(3-Fluoro-pyridin-4-yl)-furo[2,3-c]pyridin-2-yl]-piperidine-1-carboxylic acid tert-butyl ester]

Further lines, the compound ahead of its results:

SMILES | EC50 [nM]
CC(C)(C)OC(=O)N1CCC(c2cc3cc(-c4ccc(C(=O)OCc5ccccc5)cc4)ncc3o2)CC1 [Example 9, 4-[5-(4-Benzyloxycarbonyl-phenyl)-furo[2,3-c]pyridin-2-yl]-piperidine-1-carboxylic acid tert-butyl ester] | 567
CC(C)(C)OC(=O)N1CCC(c2cc3cc(-c4cnco4)ncc3o2)CC1 [Example 10, 4-(5-Oxazol-5-yl-furo[2,3-c]pyridin-2-yl)-piperidine-1-carboxylic acid tert-butyl ester] | 592
CC(C)(C)OC(=O)N1CCC(c2cc3cc(N4CCN(S(C)(=O)=O)CC4)ncc3o2)CC1 [Example 13, 4-[5-(4-Methanesulfonyl-piperazin-1-yl)-furo[2,3-c]pyridin-2-yl]-piperidine-1-carboxylic acid tert-butyl ester] | 82
CC(C)(C)OC(=O)N1CCC(c2cc3cc(C4=CCN(S(C)(=O)=O)CC4)ncc3o2)CC1 [Example 14, 4-[5-(1-Methanesulfonyl-1,2,3,6-tetrahydro-pyridin-4-yl)-furo[2,3-c]pyridin-2-yl]-piperidine-1-carboxylic acid tert-butyl ester] | 9
CCc1cnc(N2CCC(c3cc4cc(-c5ccc(S(C)(=O)=O)cc5F)ncc4o3)CC2)nc1 [Example 16, 2-[1-(5-Ethyl-pyrimidin-2-yl)-piperidin-4-yl]-5-(2-fluoro-4-methanesulfonyl-phenyl)-furo[2,3-c]pyridine] | 64
CS(=O)(=O)c1ccc(-c2cc3cc(C4CCN(CC5(C(F)(F)F)CC5)CC4)oc3cn2)c(F)c1 [Example 17, 5-(2-Fluoro-4-methanesulfonyl-phenyl)-2-[1-(1-trifluoromethyl-cyclopropylmethyl)-piperidin-4-yl]-furo[2,3-c]pyridine] | 51
CC(C)(F)CN1CCC(c2cc3cc(-c4ccc(S(C)(=O)=O)cc4F)ncc3o2)CC1 [Example 18, 5-(2-Fluoro-4-methanesulfonyl-phenyl)-2-[1-(2-fluoro-2-methyl-propyl)-piperidin-4-yl]-furo[2,3-c]pyridine] | 79
CC(C)OC(=O)N1CCC(c2cc3cc(-c4ccc(S(C)(=O)=O)cc4F)ncc3o2)CC1 [Example 19, 4-[5-(2-Fluoro-4-methanesulfonyl-phenyl)-furo[2,3-c]pyridin-2-yl]-piperidine-1-carboxylic acid isopropyl ester] | 12
CC1(OC(=O)N2CCC(c3cc4cc(-c5ccc(S(C)(=O)=O)cc5F)ncc4o3)CC2)CC1 [Example 20, 4-[5-(2-Fluoro-4-methanesulfonyl-phenyl)-furo[2,3-c]pyridin-2-yl]-piperidine-1-carboxylic acid 1-methyl-cyclopropyl ester] | 13
CC(C)OC(=O)N1CCC(c2cc3cc(C4=CCN(S(C)(=O)=O)CC4)ncc3o2)CC1 [Example 21, 4-[5-(1-Methanesulfonyl-1,2,3,6-tetrahydro-pyridin-4-yl)-furo[2,3-c]pyridin-2-yl]-piperidine-1-carboxylic acid isopropyl ester] | 19
CC1(OC(=O)N2CCC(c3cc4cc(C5=CCN(S(C)(=O)=O)CC5)ncc4o3)CC2)CC1 [Example 22, 4-[5-(1-Methanesulfonyl-1,2,3,6-tetrahydro-pyridin-4-yl)-furo[2,3-c]pyridin-2-yl]-piperidine-1-carboxylic acid 1-methyl-cyclopropyl ester] | 10
CS(=O)(=O)N1CC=C(c2cc3cc(C4CCN(c5ccc(C(F)(F)F)cn5)CC4)oc3cn2)CC1 [Example 23, 4-[5-(1-Methanesulfonyl-1,2,3,6-tetrahydro-pyridin-4-yl)-furo[2,3-c]pyridin-2-yl]-5′-trifluoromethyl-3,4,5,6-tetrahydro-2H-[1,2′]bipyridinyl] | 86
CS(=O)(=O)N1CC=C(c2cc3cc(C4CCN(CC5(C(F)(F)F)CC5)CC4)oc3cn2)CC1 [Example 24, 5-(1-Methanesulfonyl-1,2,3,6-tetrahydro-pyridin-4-yl)-2-[1-(1-trifluoromethyl-cyclopropylmethyl)-piperidin-4-yl]-furo[2,3-c]pyridine] | 28
CS(=O)(=O)N1CC=C(c2cc3cc(C4CCN(c5ncc(Cl)cn5)CC4)oc3cn2)CC1 [Example 25, 2-[1-(5-Chloro-pyrimidin-2-yl)-piperidin-4-yl]-5-(1-methanesulfonyl-1,2,3,6-tetrahydro-pyridin-4-yl)-furo[2,3-c]pyridine] | 41
CS(=O)(=O)N1CC=C(c2cc3cc(C4CCN(c5nnc(C(F)(F)F)s5)CC4)oc3cn2)CC1 [Example 26, 5-(1-Methanesulfonyl-1,2,3,6-tetrahydro-pyridin-4-yl)-2-[1-(5-trifluoromethyl-[1,3,4]thiadiazol-2-yl)-piperidin-4-yl]-furo[2,3-c]pyridine] | 18
CC(C)(C)OC(=O)N1CCC(C)(c2cc3cc(-c4ccc(S(C)(=O)=O)cc4)ncc3o2)CC1 [Example 27, 4-[5-(4-Methanesulfonyl-phenyl)-furo[2,3-c]pyridin-2-yl]-4-methyl-piperidine-1-carboxylic acid tert-butyl ester] | 140
CC(C)(C)OC(=O)N1CCC(C)(c2cc3cc(C4=CCN(S(C)(=O)=O)CC4)ncc3o2)CC1 [Example 28, 4-[5-(1-Methanesulfonyl-1,2,3,6-tetrahydro-pyridin-4-yl)-furo[2,3-c]pyridin-2-yl]-4-methyl-piperidine-1-carboxylic acid tert-butyl ester] | 73
